This is an account of results in patent publication US20240252454A1, “COMPOSITION COMPRISING AN INHIBITOR OF MITOCHONDRIAL TRANSCRIPTION” (LEAD DISCOVERY CENTER GMBH, priority 2021, published 2024).

Common to all, as to assay: CellTiter-GLO (CTG) assay, combinatorial matrix
Format in all cases: cell-based
On the technique in general: Cellular ATP, detected with luciferase, serves as a proxy for viable cell number.

In one experiment the test system is A2780. The conditions noted are these: for combination of IMT and PARPi compared to treatment with just the PARPi alone: A2780, CTG matrix, 30 μM to 10 nM IMT (3S)-1-[(2R)-2-[4-(2-chloro-4-fluoro-phenyl)-2-oxo-chromen-7-yl]oxypropanoyl]piperidine-3-carboxylic acid + 30 μM to 40 nM of the labelled PARPi; for activity at 0.04 µM / activity at 0.1 µM / activity at 0.4 µM / activity at 1.1 µM / activity at […] / activity at 10 µM / activity at 30 µM: Homo sapiens, read-out: Measured residual activity (cellular ATP content); for activity at 0.04 µM / activity at 0.1 µM / activity at 0.4 µM / activity at 1.1 µM / activity at […] / activity at 10 µM / activity at 30 µM / Measured residual activity (cellular ATP content): A2780, 72 hours, untreated control =100%. On the procedure: (§1) To determine the in vitro cellular viability, cellular ATP concentrations were measured using a luminescence-based homogenous assay format, as described here. […] Optimal cell density for each cell line was determined to guarantee linearity. For viability assays with compounds, cells were then seeded at a density of 200 to 1000 per well in 25 μl in 384-well plates (Greiner Bio-One, Frickenhausen, Germany). After overnight incubation at 37° C./5% CO2, 25 nl or 75 nl compounds were added to each sample well by using BIOMEK FXP Laboratory Automation Workstation (Beckman Coulter, USA). Wells with cells and 0.1% or 0.3% DMSO in culture medium were used as positive controls, wells with cells and 10 μM staurosporine (Selleck Chemicals, Huston, USA) in culture medium were used as negative controls. Upon incubation with compounds for 72 h at 37° C./5% CO2 25 μl Cell Titer Glo reagent (Promega, Madison, USA, European Pat. No. 1131441, U.S. Pat. Nos. 7,083,911, 7,452,663 and 7,732,128) 1:2 diluted with cell culture medium) was added to each well to determine cell viability. 384well-plates were placed for 2 min on an orbital microplate shaker and incubated for further 10 min at room temperature resulting in a stabilization of light signal. Luminescence was measured by Envision Plate Reader (Perkin Elmer, USA).
(§2) All in vitro cell culture experiments were carried out under near physiological glucose concentrations (5 mM) in at least two independent replicates.

Another experiment has as its system HEC59. To be noted: HEC59, 72 hours, BAY-876 0 (IMT alone), IMT at the μM of c0, untreated control =100%. The method, then:
as §1, §2
(§3) To establish the method described, N,N-dimethyl-2-[4-(o-tolyl)-2-oxo-chromen-7-yl]oxy-propanamide, (3S)-1-[2-[4-(2-chloro-4-fluoro-phenyl)-2-oxo-chromen-7-yl]oxypropanoyl]piperidine-3-carboxylic acid, (3S)-1-[(2R)-2-[4-(2-chloro-4-fluoro-phenyl)-2-oxo-chromen-7-yl]oxypropanoyl]piperidine-3-carboxylic acid and BAY-876 were first examined with regard to their effect on the cell growth of twelve different tumour cell lines and the IC50 values were determined. This initial study was followed by validation experiments in a matrix format and in the CTG assay, as described under Example 1), in two tumour cell lines from uterine and ovarian carcinoma (HEC59 and A2780), as well as in primary human blood cells (PBMC) (Table 7).
(§4) Combinations of one concentration of IMT (μM; y-axis) and 30 μM-33 nM BAY-876 (x-axis) were incubated for 72 hours with HEC59, hPBMCs or A2780 and then the cellular ATP-content was determined using the CellTiter-GLO assay format. A: Measured residual activity (%) based on an untreated control group (=100%). B: The combinatorial indices are provided, based on the reference groups treated with the corresponding concentration of only one inhibitor class, according to Berenbaum and Cou & Talalay. <1=synergism, 1-2=additivity, 2>=antagonism.

Experiment [1] concerns primary human blood cells (PBMC). The conditions noted are these: hPBMCs, 72 hours, BAY-876 0 (IMT alone), IMT at the μM of c0, untreated control =100%. On the procedure: as §1, §2, §3, §4

SMILES strings stand for the structures. Read-outs that look alike come from different tables or passages of the source.

Regarding `C[C@]1(c2nc3c(C(N)=O)cccc3[nH]2)CCCN1` [Veliparib], the “combination of IMT and PARPi compared to treatment with just the PARPi alone” value in the experiment on A2780 was “advantage of the combination”. The activity at 0.04 µM in the experiment with A2780 (Veliparib 0.04 μM, IMT (3S)-1-[(2R)-2-[4-(2-chloro-4-fluoro-phenyl)-2-oxo-chromen-7-yl]oxypropanoyl]piperidine-3-carboxylic acid at the μM of c0) stood at 99%. The activity at 0.1 µM with A2780 (Veliparib 0.1 μM, IMT (3S)-1-[(2R)-2-[4-(2-chloro-4-fluoro-phenyl)-2-oxo-chromen-7-yl]oxypropanoyl]piperidine-3-carboxylic acid at the μM of c0) was 99%. In addition, in the experiment with A2780 (Veliparib 0.4 μM, IMT (3S)-1-[(2R)-2-[4-(2-chloro-4-fluoro-phenyl)-2-oxo-chromen-7-yl]oxypropanoyl]piperidine-3-carboxylic acid at the μM of c0), the activity at 0.4 µM worked out at 97%. Also, in the experiment with A2780 (Veliparib 1.1 μM, IMT (3S)-1-[(2R)-2-[4-(2-chloro-4-fluoro-phenyl)-2-oxo-chromen-7-yl]oxypropanoyl]piperidine-3-carboxylic acid at the μM of c0), the activity at 1.1 µM was determined as 89%. For the same compound, the activity at […] with A2780 (Veliparib 3.3 μM, IMT (3S)-1-[(2R)-2-[4-(2-chloro-4-fluoro-phenyl)-2-oxo-chromen-7-yl]oxypropanoyl]piperidine-3-carboxylic acid at the μM of c0) worked out at 85%. In the experiment with A2780 (Veliparib 10 μM, IMT (3S)-1-[(2R)-2-[4-(2-chloro-4-fluoro-phenyl)-2-oxo-chromen-7-yl]oxypropanoyl]piperidine-3-carboxylic acid at the μM of c0), the activity at 10 µM was 43%. For the same compound, the activity at 30 µM in the experiment on A2780 (Veliparib 30 μM, IMT (3S)-1-[(2R)-2-[4-(2-chloro-4-fluoro-phenyl)-2-oxo-chromen-7-yl]oxypropanoyl]piperidine-3-carboxylic acid at the μM of c0) came out at 6%.

Regarding `C[C@@H](Oc1ccc2c(-c3ccc(F)cc3Cl)cc(=O)oc2c1)C(=O)N1CCC[C@H](C(=O)O)C1` [IMT], the “Measured residual activity (cellular ATP content)” value is 99% in the experiment on HEC59 (IMT 0.005 µM); 39% with HEC59 (IMT 1.25 µM); 98% in experiment [1] (IMT 0.059 µM); 94% in experiment [1] (IMT 0.234 µM); 35% with A2780 (BAY-876 0 (IMT alone), IMT at the μM of c0, IMT 0.12 µM); 32% with A2780 (BAY-876 0 (IMT alone), IMT at the μM of c0, IMT 0.47 µM). Further, the “Measured residual activity (cellular ATP content)” value is 29% with A2780 (BAY-876 0 (IMT alone), IMT at the μM of c0, IMT 1.88 µM); 30% in the experiment with A2780 (Olaparib 0 (IMT alone), IMT (3S)-1-[(2R)-2-[4-(2-chloro-4-fluoro-phenyl)-2-oxo-chromen-7-yl]oxypropanoyl]piperidine-3-carboxylic acid at the μM of c0); 25% with A2780 (Rucaparib 0 (IMT alone), IMT (3S)-1-[(2R)-2-[4-(2-chloro-4-fluoro-phenyl)-2-oxo-chromen-7-yl]oxypropanoyl]piperidine-3-carboxylic acid at the μM of c0); 29% with A2780 (Veliparib 0 (IMT alone), IMT (3S)-1-[(2R)-2-[4-(2-chloro-4-fluoro-phenyl)-2-oxo-chromen-7-yl]oxypropanoyl]piperidine-3-carboxylic acid at the μM of c0, IMT 0.2 µM); 31% in the experiment on A2780 (Veliparib 0 (IMT alone), IMT (3S)-1-[(2R)-2-[4-(2-chloro-4-fluoro-phenyl)-2-oxo-chromen-7-yl]oxypropanoyl]piperidine-3-carboxylic acid at the μM of c0, IMT 7.5 µM).

Consider `CNCc1ccc(-c2[nH]c3cc(F)cc4c3c2CCNC4=O)cc1` [Rucaparib], for which, in the experiment with A2780, the “combination of IMT and PARPi compared to treatment with just the PARPi alone” value is listed as “advantage of the combination”. For the same compound, the activity at 0.04 µM in the experiment on A2780 (Rucaparib 0.04 μM, IMT (3S)-1-[(2R)-2-[4-(2-chloro-4-fluoro-phenyl)-2-oxo-chromen-7-yl]oxypropanoyl]piperidine-3-carboxylic acid at the μM of c0) amounted to 90%. Also, the activity at 0.1 µM in the experiment on A2780 (Rucaparib 0.1 μM, IMT (3S)-1-[(2R)-2-[4-(2-chloro-4-fluoro-phenyl)-2-oxo-chromen-7-yl]oxypropanoyl]piperidine-3-carboxylic acid at the μM of c0) was determined as 70%. Besides, the activity at 0.4 µM in the experiment with A2780 (Rucaparib 0.4 μM, IMT (3S)-1-[(2R)-2-[4-(2-chloro-4-fluoro-phenyl)-2-oxo-chromen-7-yl]oxypropanoyl]piperidine-3-carboxylic acid at the μM of c0) came out at 42%. Moreover, the activity at 1.1 µM in the experiment with A2780 (Rucaparib 1.1 μM, IMT (3S)-1-[(2R)-2-[4-(2-chloro-4-fluoro-phenyl)-2-oxo-chromen-7-yl]oxypropanoyl]piperidine-3-carboxylic acid at the μM of c0) turned out to be 21%. The activity at […] with A2780 (Rucaparib 3.3 μM, IMT (3S)-1-[(2R)-2-[4-(2-chloro-4-fluoro-phenyl)-2-oxo-chromen-7-yl]oxypropanoyl]piperidine-3-carboxylic acid at the μM of c0) is 6%. Further, the activity at 10 µM in the experiment on A2780 (Rucaparib 10 μM, IMT (3S)-1-[(2R)-2-[4-(2-chloro-4-fluoro-phenyl)-2-oxo-chromen-7-yl]oxypropanoyl]piperidine-3-carboxylic acid at the μM of c0) amounted to 0%. Further, the activity at 30 µM in the experiment with A2780 (Rucaparib 30 μM, IMT (3S)-1-[(2R)-2-[4-(2-chloro-4-fluoro-phenyl)-2-oxo-chromen-7-yl]oxypropanoyl]piperidine-3-carboxylic acid at the μM of c0) worked out at 0%.
